Laboratory results as given in article PMC7018972, “Novel and selective inactivators of Triosephosphate isomerase with anti-trematode activity” (Scientific Reports, 2020).
Where two headings read alike, the source gives them in different places. One block for each molecule: values may come before it.

Columns and labels:
[1] = target: Fasciola hepatica TIM (FhTIM) (Fasciola hepatica, UniProt S4UI50); assay: Inhibition of recombinant FhTIM, coupled enzyme assay; format: biochemical
Summary of the method: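 E. coli-expressed FhTIM preincubated with compound 1 h at 37 °C in 100 mM triethanolamine, 10 mM EDTA, pH 7.4, 10% DMSO. Aliquot diluted into coupled assay (1 mM glyceraldehyde-3-phosphate, 0.2 mM NADH, α-glycerol phosphate dehydrogenase, pH 7.4) with NADH decrease at 340 nm, 38 °C. Triplicate, two independent experiments.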

[2] = tested on: newly excysted juvenile (NEJ) F. hepatica; assay: In vitro NEJ treatment; format: cell-based, Fasciola hepatica; settings: Fasciola hepatica, NEJ
Description: F. hepatica metacercariae were acquired from DILAVE, MGAP, Uruguay. NEJ were obtained by in vitro excystement as previously described with minor modifications. Briefly, metacercariae were incubated with 1% sodium hypochlorite for 5 min at room temperature to remove the outer cyst wall and then washed exhaustively with PBS 200 U/mL Penicillin G sulfate, […] streptomycin sulfate, 500 ng/mL amphotericin B, 10 mM HEPES, counted and divided into groups of around 20 parasites that were transferred to 12 wells tissue culture plates. Parasites were maintained at 37 °C, 5% CO2 in modified Basch’s medium. At day 1, compounds were added at the indicated concentrations and 0.5% DMSO was added to control groups; each condition was tested in duplicate. NEJ behavior was monitored under a light microscope (Olympus BX41), every day each well was recorded for a minute in order to assess parasite motility and registered using the following score: 3- normally active; 2- reduced activity (sporadic movement); 1- immotile (dead)[48].

[3] = tested on: S. mansoni somules; assay: S. mansoni somules phenotypic screen in vitro; format: cell-based, Schistosoma mansoni; settings: for SOMULES SEVERITY SCORE: Table 2S, 10 uM
Excerpt: (§1) The NMRI isolate of S. mansoni was maintained by passage through Biomphalaria glabrata snails and 3–5 week-old, female Golden Syrian hamsters (Charles River, San Diego, CA) as intermediate and definite hosts, respectively. A dose of 600 infective larvae (cercariae) was used to infect hamsters. The acquisition, preparation and in vitro maintenance of S. mansoni post-infective larvae (schistosomula or somules) and adults have been already described[5],[50],[51]. Vertebrate animal maintenance and handling at the University of California San Diego Animal Care Facility were in accordance with protocols approved by the university’s Institutional Animal Care and Use Committee (IACUC).
Phenotypic screens with somules were performed as described[5],[50],[51]. Initially, 100 μL Basch medium, 100 U/ml penicillin, […] streptomycin, 4% heat-inactivated FBS (Corning Mediatech) and 1 μl compound in DMSO were added to clear, 96-well round-bottomed plates (Costar cat.# 3367). Then, 100 μL of the same medium containing 40–50 somules was added to mix the compound with somules (final concentration of DMSO was 0.5%). Assay plates were placed into plastic boxes humidified with wet tissue and then incubated at 37 °C in a 5% CO2 environment. Somules phenotypes were recorded every 24 h up to 72 h using an inverted microscope (Zeiss Axiovert 40 C).
(§2) Schistosome phenotypic responses were recorded employing a series of ‘descriptors,’ such as rounding, degeneration, overactivity, loss of translucency and changes in motility, as described previously[5],[50],[51],[53]. To allow for comparisons of compound activity, each descriptor was awarded a value of 1 and these were added up to a maximum ‘severity score’ of 4. Evidence of degeneracy or death was awarded the maximum score of 4. Scores were averaged across duplicate wells for each compound (see details in the supporting information).

[4] = tested on: S. mansoni adults; assay: S. mansoni adults phenotypic screen ex vivo; format: cell-based, Schistosoma mansoni; settings: Table 2S, 5 uM
Excerpt: as §1
Phenotypic screens with 42-day-old, adult parasites were performed in 24-well plates (Costar cat.# 3526) containing the above medium and approximately five adult males and two females per well. Compound was added in a volume of up to 1 μL DMSO at a concentration of 5 µM (0.05% DMSO final). Assay plates were incubated at 37 °C in a 5% CO2 environment. Parasite phenotypes were recorded at 4, 8 and 24 h using a Zeiss Axiovert 40 C.
as §2

[5] = target: FhTIM (Fasciola hepatica, UniProt S4UI50); assay: Microscale thermophoresis (MST) binding to FhTIM; settings: 24 °C
Sequence of FhTIM (S4UI50 entry or part of it): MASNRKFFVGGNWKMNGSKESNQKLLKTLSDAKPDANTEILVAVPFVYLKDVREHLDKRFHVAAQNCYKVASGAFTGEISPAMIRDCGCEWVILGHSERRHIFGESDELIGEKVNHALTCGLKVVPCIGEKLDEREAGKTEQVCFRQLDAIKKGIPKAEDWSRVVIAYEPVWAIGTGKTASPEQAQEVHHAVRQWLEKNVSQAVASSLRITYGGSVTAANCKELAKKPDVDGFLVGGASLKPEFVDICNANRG
Description: MST experiments were performed according to the NanoTemper technologies protocol in a Monolith NT.115 (red/blue) instrument (NanoTemper Technologies, München, Germany[36]). With this technique, the diffusion behavior of a labeled protein is measured when an infrared light excites the movement of the protein in capillaries. This behavior is the combination of two effects: the fast, local environment-dependent responses of the fluorophore to the temperature jump and the slower diffusive thermophoresis fluorescence changes. It will be modified when the protein is complexed with increasing amounts of unlabeled partners, leading to titration curves that can be fit for Kd estimation. In practice, FhTIM was labeled with the Monolith His-Tag Labeling Kit RED-tris-NTA (NanoTemper Technologies, München, Germany), as described by the manufacturer. The experiments were performed using 20% and 40% MST power and between 20–80% LED power at 24 °C. The MST traces were recorded using the standard parameters: 5 s MST power off, 30 s MST power on, and 5 s MST power off. The compounds were used at high concentrations (around 5 mM) in the bindings check assay with DMSO at 5% v/v. If the binding check was positive, then the affinity determination was performed with the same experimental settings, with serial 2x dilutions of the compound of interest.

[6] = Figure 1, ranges of inhibitory activity, read-out: IC50 range
[7] = Table 1S, screening of 340 compounds in FhTIM, table head prints no unit, µM per b8/b9, read-out: IC50
[8] = recombinant FhTIM, 1 h incubation with compound at 37 °C, read-out: IC50

Sequence of Fasciola hepatica TIM (FhTIM) (S4UI50 entry or part of it): as above

IC50 [1, 6]: < 50 µM
IC50 [1, 7]: < 25 µM
IC50 [1, 8]: 5 ± 1 µM
IC50 ([2]; incubation time 72 h): > 50 µM
SMILES: O=C1C(=Cc2ccc([N+](=O)[O-])o2)C(=O)N(Cc2ccccc2)S(=O)(=O)N1Cc1ccccc1 [Compound 116]

IC50 [1, 6]: < 50 µM
IC50 [1, 8]: 25 ± 8 µM
Kd [5]: 664 ± 25 µM
IC50 ([2]; incubation time 4 h): 6.5 ± 0.6 µM
SMILES: O=C1C(=Cc2ccc([N+](=O)[O-])s2)C(=O)N(Cc2ccccc2)S(=O)(=O)N1Cc1ccccc1 [Compound 114]
S. mansoni somules severity score ([3]; Table 2, 72 h, score 0 to maximum 4): 4 (72 h)
SOMULES SEVERITY SCORE ([3]; 24 h): 0
SOMULES SEVERITY SCORE ([3]; 48 h): 3
SOMULES SEVERITY SCORE ([3]; 3d): 4

IC50 [1, 8]: 50 ± 5 µM
SMILES: O=C(C=Cc1ccc2ccccc2c1)c1c(O)ccc2ccccc12 [Compound 1254]
SOMULES SEVERITY SCORE ([3]; 24 h): 0
SOMULES SEVERITY SCORE ([3]; 48 h): 2
SOMULES SEVERITY SCORE ([3]; 3d): 0

IC50 [1, 7]: > 100 µM
SMILES: C=CCn1c(-c2csc(=NN=Cc3cccs3)n2CC=C)csc1=NN=Cc1cccs1 [Compound 288]

IC50 [1, 7]: > 100 µM
SMILES: O=C1CSC(=NN=Cc2ccc([N+](=O)[O-])s2)N1c1ccccc1 [Compound 262]

IC50 [1, 7]: > 100 µM
SMILES: C=CCn1c(C)csc1=NN=CC=Cc1cccs1 [Compound 1128]

IC50 [1, 7]: > 100 µM
SMILES: C=CCn1c(-c2ccccc2)csc1=NN=Cc1cccs1 [Compound 272]

IC50 [1, 7]: > 100 µM
SMILES: C=CCn1c(C(=O)N2CCN(CC=Cc3ccccc3)CC2)csc1=NN=CC=Cc1ccco1 [Compound 314]

IC50 [1, 7]: 50 to 100 µM
SMILES: C=CCn1c(-c2ccccc2)csc1=NN=CC=Cc1cccs1 [Compound 875]

IC50 [1, 7]: > 100 µM
SMILES: [O-][n+]1onc2ccc(CN3CCN(CC=Cc4ccccc4)CC3)cc21 [Compound 609]

IC50 [1, 7]: > 100 µM
SMILES: C=CCn1c(C(=O)CNN2CCN(C/C=C/c3ccccc3)CC2)csc1=NN=C/C=C/c1ccco1 [Compound 1115]

IC50 [1, 7]: > 100 µM
SMILES: C(=CC=NN=c1scc(-c2ccccc2)n1-c1ccccc1)C=Cc1ccco1 [Compound 814]

IC50 [1, 7]: > 100 µM
SMILES: S=C(NN=C/C=C/c1ccco1)Nc1ccccc1 [Compound 277]

IC50 [1, 7]: > 100 µM
SMILES: C=CCn1c(-c2ccc(Cl)cc2)csc1=NN=CC=Cc1ccco1 [Compound 266]

More lines, now with the values behind:

SMILES: C=CCN1C(=O)CSC1=NN=Cc1ccc2c(c1)[n+]([O-])c(-c1ccccc1)c(C(=O)Nc1ccccc1)[n+]2[O-] [Compound 303]
IC50 [1, 7]: > 100 µM
SOMULES SEVERITY SCORE ([3]; 24 h): 0
SOMULES SEVERITY SCORE ([3]; 48 h): 4
SOMULES SEVERITY SCORE ([3]; 3d): 4
ADULTS SEVERITY SCORE ([4]; 4 h): 0
ADULTS SEVERITY SCORE ([4]; 8 h): 0
ADULTS SEVERITY SCORE ([4]; 24 h): 0

SMILES: C=CCNC(=S)NN=Cc1ccc2c(c1)[n+]([O-])c(C(=O)Nc1ccccc1)c(C)[n+]2[O-] [Compound 490]
IC50 [1, 7]: > 100 µM
SOMULES SEVERITY SCORE ([3]; 24 h): 0
SOMULES SEVERITY SCORE ([3]; 48 h): 0
SOMULES SEVERITY SCORE ([3]; 3d): 0

SMILES: CS(=O)(=O)c1nc2cc(Oc3cccc(Cl)c3Cl)c(Cl)cc2[nH]1 [Compound 1293, 6-chloro-5-(2,3-dichlorophenoxy)-2-(methylsulfonyl)-1H-benzo[d]imidazole, reference compound]
IC50 ([2]; incubation time 48 h): 50 µM

SMILES: CCCCN1C(=O)C(=Cc2ccc([N+](=O)[O-])s2)C(=O)N(CCCC)S1(=O)=O [Compound 1148]
IC50 [1, 6]: < 50 µM
IC50 [1, 8]: 15 ± 5 µM
IC50 ([2]; incubation time 4 h): 12 ± 2 µM
SOMULES SEVERITY SCORE ([3]; 24 h): 0
SOMULES SEVERITY SCORE ([3]; 48 h): 1
SOMULES SEVERITY SCORE ([3]; 3d): 0

SMILES: CN(C)Cc1ccccc1Cn1nc(O)c2cc([N+](=O)[O-])ccc21 [Compound 482]
IC50 [1, 6]: < 50 µM
IC50 [1, 8]: 30 ± 3 µM

SMILES: C=CCNC(=S)NN=Cc1ccsc1 [Compound 911]
IC50 [1, 7]: > 100 µM

SMILES: [O-][N+]1=c2ccccc2=[N+]([O-])C12CCCC2 [Compound 633]
IC50 [1, 7]: > 100 µM

SMILES: [Se]=C(NCCN1CCOCC1)NN=CC=Cc1ccco1 [Compound 1147]
IC50 [1, 7]: 50 to 100 µM

SMILES: NNC(=O)c1ccc2c(c1)OCO2 [Compound 711]
IC50 [1, 7]: > 100 µM

SMILES: COc1nn(CCOCCI)c2ccc([N+](=O)[O-])cc12 [Compound 514]
IC50 [1, 7]: > 100 µM

SMILES: O=Cc1ccc2no[n+]([O-])c2c1 [Compound 38]
IC50 [1, 7]: > 100 µM

SMILES: O=C1CCCC2=C1C(c1cccc(Br)c1)c1ccc3ccccc3c1N2 (stereo not shown) [Compound 699]
IC50 [1, 7]: > 100 µM

SMILES: C=CCNc1nnc(-c2ccc([N+](=O)[O-])s2)s1 [Compound 292]
IC50 [1, 7]: > 100 µM

SMILES: N#CC(C#N)=CC=Cc1ccco1 [Compound 579]
IC50 [1, 7]: > 100 µM

SMILES: COc1cc(/C=C/C(=O)CC(=O)/C=C/c2ccc(O)c(OC)c2)ccc1O [Compound 906]
IC50 ([1]; IC50 (µM), recombinant FhTIM, 1 h incubation with compound at 37 °C): 35 ± 4 µM
IC50 ([1]; IC50 range, Figure 1, ranges of inhibitory activity): < 50 µM
IC50 ([2]; incubation time 4 h): 7 ± 1 µM

SMILES: O=[N+]([O-])c1ccc2c(c1)c(O)nn2CCCCCN1CCCCC1 [Compound 481]
IC50 [1, 7]: 50 to 100 µM

SMILES: Cc1ncc([N+](=O)[O-])n1CCI [Compound 712]
IC50 [1, 7]: > 100 µM
